Experimental findings from paper doi:10.1101/760033v2 (biorxiv, 2019) are described below.

Assay in all cases: HTRF cAMP assay in HEK293T
Assay type in all cases: cell-based
(In general: Time-resolved FRET reads energy transfer from a long-lived donor to a nearby acceptor.)

Assay [1] has as its target T1, Olfr739 (Mus musculus, UniProt E9Q1P0).
T1 sequence (E9Q1P0 1-309): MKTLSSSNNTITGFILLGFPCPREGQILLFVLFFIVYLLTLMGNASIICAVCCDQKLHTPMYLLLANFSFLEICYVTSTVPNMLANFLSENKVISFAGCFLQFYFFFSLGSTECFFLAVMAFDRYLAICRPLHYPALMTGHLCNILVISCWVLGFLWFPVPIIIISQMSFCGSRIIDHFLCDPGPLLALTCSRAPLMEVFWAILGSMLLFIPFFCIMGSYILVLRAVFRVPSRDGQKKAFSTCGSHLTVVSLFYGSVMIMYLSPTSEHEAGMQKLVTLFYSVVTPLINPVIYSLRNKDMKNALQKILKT
Conditions: partial agonist; range printed for four receptors together.

The next assay addresses T2, Olfr743 (Mus musculus, UniProt L7N1Y2).
T2 sequence (L7N1Y2 1-311): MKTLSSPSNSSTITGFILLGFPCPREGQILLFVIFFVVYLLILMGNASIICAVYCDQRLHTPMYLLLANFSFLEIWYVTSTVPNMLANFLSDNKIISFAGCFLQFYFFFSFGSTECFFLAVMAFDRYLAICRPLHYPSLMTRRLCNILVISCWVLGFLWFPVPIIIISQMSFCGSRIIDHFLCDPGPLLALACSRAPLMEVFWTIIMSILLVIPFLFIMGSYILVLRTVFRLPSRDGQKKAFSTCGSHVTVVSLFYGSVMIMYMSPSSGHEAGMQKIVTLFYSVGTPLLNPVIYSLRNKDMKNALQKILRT

The target in the next assay is T3, Olfr748 (Mus musculus, UniProt E9Q9Z0).
T3 sequence (E9Q9Z0 1-307): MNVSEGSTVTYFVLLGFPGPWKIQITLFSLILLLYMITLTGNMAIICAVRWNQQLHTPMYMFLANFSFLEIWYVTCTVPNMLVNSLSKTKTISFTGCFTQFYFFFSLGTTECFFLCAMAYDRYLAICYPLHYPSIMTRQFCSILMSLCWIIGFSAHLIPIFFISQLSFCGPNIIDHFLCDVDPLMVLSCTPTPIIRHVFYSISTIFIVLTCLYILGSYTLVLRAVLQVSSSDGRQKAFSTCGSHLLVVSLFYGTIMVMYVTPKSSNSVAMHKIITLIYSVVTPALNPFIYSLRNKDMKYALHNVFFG

Assay [2] deals with T1, Olfr739.

As for `COc1ccc2ccccc2c1` [compound 35, 2-methoxynaphthalene], the “% of the maximum indole response” value on Olfr739 [1] was 71-75%.

Consider `c1ccc2[nH]ccc2c1` [compound 37, indole], for which the figures for the concentration for a half-maximal effect (EC50) on Olfr743, on Olfr748 and on Olfr739 [2] were 0.08 µM, 81 µM and 32 µM, respectively.

As usually defined, the EC50 is the concentration giving half of the maximal effect. A higher EC50 goes with weaker potency.
